{"source": "BindingDB's records for doi:10.7270/Q2M043S8", "about": "(University of Pittsburgh, 2006)", "data": [{"target": "T1, Dual specificity protein phosphatase 6 (Rattus norvegicus, UniProt Q64346)", "T1 sequence (Q64346 whole entry)": "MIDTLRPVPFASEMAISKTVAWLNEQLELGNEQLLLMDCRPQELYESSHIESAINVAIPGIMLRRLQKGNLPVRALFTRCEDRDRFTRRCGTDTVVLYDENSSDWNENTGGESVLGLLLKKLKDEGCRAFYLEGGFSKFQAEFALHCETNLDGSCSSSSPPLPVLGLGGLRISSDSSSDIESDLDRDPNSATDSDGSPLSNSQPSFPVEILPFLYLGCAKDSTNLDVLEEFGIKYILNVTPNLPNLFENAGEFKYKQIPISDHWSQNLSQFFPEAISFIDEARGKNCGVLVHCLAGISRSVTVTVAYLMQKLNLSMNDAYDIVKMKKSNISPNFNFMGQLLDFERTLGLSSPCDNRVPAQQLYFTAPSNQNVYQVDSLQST", "test": "catalase influence on rat DUSP6 inhibition – biochemical, catalase added, probe assessment, dose response (AID 564)", "units": {"IC50": "µM"}, "values": [{"compound": "COc1ccc(-c2cc3nc(C4CCN(C(=O)OC(C)(C)C)CC4)c(C(=O)O)cn3n2)cc1", "note": "[2-(4-methoxyphenyl)-5-[1-[(2-methylpropan-2-yl)oxy-oxomethyl]-4-piperidinyl]-6-pyrazolo[1,5-a]pyrimidinecarboxylic acid]", "IC50": "> 50"}, {"compound": "CCn1nc(-c2ccccc2)nc2c(=O)n(C)c(=O)nc1-2", "note": "[1-Ethyl-6-methyl-3-phenyl-1H-pyrimido[5,4-e][1,2,4]triazine-5,7-dione]", "IC50": "> 50"}, {"compound": "CCCCn1c(NC(=O)c2ccccc2)c(C#N)c2nc3ccccc3nc21", "note": "[SMR000060333]", "IC50": "> 50"}, {"compound": "Cc1cccc(N2CCN(C(=O)Cc3c(C(=O)O)[nH]c4ccc(Cl)cc34)CC2)c1C", "note": "[5-chloranyl-3-[2-[4-(2,3-dimethylphenyl)piperazin-1-yl]-2-oxidanylidene-ethyl]-1H-indole-2-carboxylic acid]", "IC50": "> 50"}, {"compound": "CCOc1cc(/C=C(/C#N)c2ccc(F)cc2)ccc1OCc1ccc(C(=O)O)o1", "note": "[5-[[4-[(E)-2-cyano-2-(4-fluorophenyl)ethenyl]-2-ethoxyphenoxy]methyl]furan-2-carboxylic acid]", "IC50": "> 50"}, {"compound": "CCCCCNC(=O)c1ccc2c(=O)[nH]c3c(C(=O)NCC4CCCO4)sc(=S)n3c2c1", "note": "(configuration not stated) [5-oxo-N3-(2-oxolanylmethyl)-N8-pentyl-1-sulfanylidene-4H-thiazolo[3,4-a]quinazoline-3,8-dicarboxamide]", "IC50": "> 50"}, {"compound": "Cc1ccc(C)n1-c1cccc(C(=O)O)c1", "IC50": "> 50"}, {"compound": "O=C(c1cccs1)c1no[n+]([O-])c1C(=O)c1cccs1", "note": "[(5-oxidanidyl-4-thiophen-2-ylcarbonyl-1,2,5-oxadiazol-5-ium-3-yl)-thiophen-2-yl-methanone]", "IC50": "> 50"}, {"compound": "O=C1C(=C2C(=O)c3ccccc3C2=O)Nc2ccccc21", "note": "[MLS000071738]", "IC50": "> 50"}, {"compound": "CCCCCC#CCC#CCC#CCC#CCCCC(=O)O", "IC50": "> 50"}, {"compound": "Cc1nc2c(C(=O)NCCC3=CCCCC3)c[nH]n2c(=O)c1Cl", "note": "[6-chloro-N-(2-cyclohex-1-en-1-ylethyl)-7-hydroxy-5-methylpyrazolo[1,5-a]pyrimidine-3-carboxamide]", "IC50": "> 50"}, {"compound": "Cc1ccc(/C=C/C2=Cc3c(sc(NC(=O)CSc4nnc(N)[nH]4)c3C#N)C(C)(C)C2)o1", "note": "[2-[(5-azanyl-1H-1,2,4-triazol-3-yl)sulfanyl]-N-[3-cyano-7,7-dimethyl-5-[(E)-2-(5-methylfuran-2-yl)ethenyl]-6H-1-benzothiophen-2-yl]ethanamide]", "IC50": "> 50"}, {"compound": "N#Cc1c(NC(=O)c2ccc(Br)o2)n(-c2ccccc2)c2nc3ccccc3nc12", "note": "[5-bromanyl-N-(3-cyano-1-phenyl-pyrrolo[3,2-b]quinoxalin-2-yl)furan-2-carboxamide]", "IC50": "> 50"}, {"compound": "COc1cc(/C=C(/C#N)c2ccc(F)cc2)ccc1OCc1ccc(C(=O)O)o1", "note": "[5-({4-[2-cyano-2-(4-fluorophenyl)vinyl]-2-methoxyphenoxy}methyl)-2-furoic acid]", "IC50": "> 50"}, {"compound": "FC(F)(F)c1ccc(N2CCOCC2)c(Nc2nc3ccccc3n3cnnc23)c1", "note": "[MLS000093276]", "IC50": "> 50"}, {"compound": "Nc1c(N2CCCC2)cc(Cl)c2nonc12", "note": "[(7-chloro-5-pyrrolidino-benzofurazan-4-yl)amine]", "IC50": "> 50"}, {"compound": "Cc1c(N=c2c(=O)c3ccccc3c2=O)c(=O)n(-c2ccccc2)n1C", "note": "[MLS000105950]", "IC50": "> 50"}, {"compound": "Cc1cc(NC(=O)c2ccc(S(=O)(=O)N3CCCC3)cc2)nc2c1c(=O)oc1ccccc12", "note": "[MLS000091355]", "IC50": "> 50"}, {"compound": "[O-]/[N+](=C/c1ccc(F)cc1)c1ccccc1", "note": "[(E)-(4-fluorobenzylidene)(phenyl)azane oxide]", "IC50": "> 50"}, {"compound": "Cc1nc2cc(-c3cccc(F)c3)nn2c(C)c1CCC(=O)N1CCC2(CC1)OCCO2", "note": "[1-(1,4-dioxa-8-azaspiro[4.5]decan-8-yl)-3-[2-(3-fluorophenyl)-5,7-dimethyl-6-pyrazolo[1,5-a]pyrimidinyl]-1-propanone]", "IC50": "> 50"}, {"compound": "CC1=C(/C=C/C(C)=C/C=C/C(C)=C/C(=O)O)C(C)(C)CCC1", "note": "[ALL-TRANS-RETINOIC ACID]", "IC50": "> 50"}, {"compound": "COc1ccc(Br)cc1C=c1sc2nc(-c3ccco3)nn2c1=O", "note": "[5-[(5-bromanyl-2-methoxy-phenyl)methylidene]-2-(furan-2-yl)-[1,3]thiazolo[3,2-b][1,2,4]triazol-6-one]", "IC50": "> 50"}, {"compound": "COc1ccc2noc3c2c1C(=O)c1ccccc1-3", "note": "[MLS000106874]", "IC50": "> 50"}, {"compound": "CCCSc1nnc(NC(=O)c2sc3nc(-c4cccs4)ccc3c2N)s1", "note": "[3-amino-N-(5-propylsulfanyl-1,3,4-thiadiazol-2-yl)-6-thiophen-2-ylthieno[2,3-b]pyridine-2-carboxamide]", "IC50": "> 50"}, {"compound": "Cc1cccc(NC(=O)c2cc(NC(=O)C3CCCCC3C(=O)O)ccc2N2CCCCC2)c1", "note": "(configuration not stated) [2-({[3-{[(3-methylphenyl)amino]carbonyl}-4-(1-piperidinyl)phenyl]amino}carbonyl)cyclohexanecarboxylic acid]", "IC50": "> 50"}, {"compound": "CC(C)Sc1nc2sc3c(c2c2nnc(SCC(=O)NCc4ccco4)n12)CCCC3", "note": "[MLS000082957]", "IC50": "> 50"}, {"compound": "CCCCn1c(SCC(=O)c2ccc(OC)cc2OC)nc2cc(S(N)(=O)=O)ccc21", "note": "[1-butyl-2-[2-(2,4-dimethoxyphenyl)-2-oxidanylidene-ethyl]sulfanyl-benzimidazole-5-sulfonamide]", "IC50": "> 50"}, {"compound": "CCn1nc(-c2cccs2)nc2c(=O)n(C)c(=O)nc1-2", "note": "[1-ethyl-6-methyl-3-thiophen-2-yl-pyrimido[5,4-e][1,2,4]triazine-5,7-dione]", "IC50": "> 50"}, {"compound": "Nc1nc2c(s1)CCc1c-2cnn1-c1ccccc1", "note": "[MLS000085948]", "IC50": "> 50"}, {"compound": "COc1ccc(-n2c(NC(=O)c3ccco3)c(C#N)c3nc4ccccc4nc32)cc1", "note": "[MLS000079925]", "IC50": "> 50"}, {"compound": "O=C(Nc1ccccc1)c1ccc2nc(-c3ccco3)c(-c3ccco3)nc2c1", "note": "[2,3-di-2-furyl-N-phenyl-6-quinoxalinecarboxamide]", "IC50": "> 50"}, {"compound": "CCCCNC(=O)c1c(N)n(CCCOC)c2nc3ccccc3nc12", "note": "[2-amino-N-butyl-1-(3-methoxypropyl)-3-pyrrolo[3,2-b]quinoxalinecarboxamide]", "IC50": "> 50"}, {"compound": "N#Cc1c(N2CCCC2)nc(N)c2c(N)nc(N3CCCC3)cc12", "note": "[SMR000061605]", "IC50": "> 50"}, {"compound": "CCn1c(SCC(=O)Nc2ccc3c(c2)c2ccccc2n3CC)nnc1-c1ccco1", "note": "[MLS000050867]", "IC50": "> 50"}, {"compound": "[O-]/[N+](=C\\c1ccncc1)c1ccccc1", "IC50": "> 50"}, {"compound": "CC(C)(C)N1C(=O)Cc2c1nc(N)c1c(N)nc(N3CCCCC3CO)c(C#N)c21", "note": "(configuration not stated) [5,6-bis(azanyl)-3-tert-butyl-8-[2-(hydroxymethyl)piperidin-1-yl]-2-oxidanylidene-1H-pyrrolo[2,3-c][2,7]naphthyridine-9-carbonitrile]", "IC50": "> 50"}, {"compound": "Cc1ccc(-c2csc(NC(=O)c3ccno3)n2)cc1", "note": "[MLS000081820]", "IC50": "> 50"}, {"compound": "CCc1ccc(NC(=O)CSc2nc3ccccc3c(=O)n2CCN2CCOCC2)cc1", "note": "[MLS000095236]", "IC50": "> 50"}, {"compound": "CCOC(=O)c1ccc2c(c1)C1C=CCC1C(C(=O)O)N2", "note": "(configuration not stated) [MLS-0025126.0001]", "IC50": "> 50"}, {"compound": "[O-]/[N+](=C\\c1ccc(OC(F)F)cc1)c1ccccc1", "note": "[1-[4-(difluoromethoxy)phenyl]-N-phenylmethanimine oxide]", "IC50": "> 50"}, {"compound": "O=C(OC1CCCCC1)c1ccc2c(c1)C1C=CCC1C(C(=O)O)N2", "note": "(configuration not stated) [SMR000019385]", "IC50": "> 50"}, {"compound": "CC(=O)[C@@H]1[C@@H]2C(=O)N(c3ccc(F)c(Cl)c3)C(=O)[C@@H]2C2c3ccccc3C=CN21", "note": "(some centres not stated) [MLS000040594]", "IC50": "> 50"}, {"compound": "O=C(NC1(O)C(=O)c2ccccc2C1=O)c1ccccc1", "note": "[N-(2-hydroxy-1,3-dioxo-2-indenyl)benzamide]", "IC50": "> 50"}, {"compound": "COc1ccc(Cn2c(C)nc3c(c2=O)c2nc4ccccc4nc2n3Cc2ccco2)cc1", "note": "[MLS000079944]", "IC50": 47.8}, {"compound": "CC(C)Cn1c(N)c(C(=O)COC(=O)c2cc(-c3ccco3)nc3ccccc23)c(=O)n(C)c1=O", "note": "[2-(2-furanyl)-4-quinolinecarboxylic acid [2-[4-amino-1-methyl-3-(2-methylpropyl)-2,6-dioxo-5-pyrimidinyl]-2-oxoethyl] ester]", "IC50": "> 50"}, {"compound": "O=C1Nc2ccccc2SC(c2ccccc2)C1O", "note": "(configuration not stated) [3-hydroxy-2-phenyl-2,3-dihydro-1,5-benzothiazepin-4(5H)-one]", "IC50": "> 50"}, {"compound": "O=C1C=C(NCc2ccc(Cl)c(Cl)c2)CC1", "note": "[3-[(3,4-dichlorobenzyl)amino]cyclopent-2-en-1-one]", "IC50": "> 50"}, {"compound": "Cc1cc(C)n2c(SCC(=O)N3CCN(S(=O)(=O)c4ccc(Cl)cc4)CC3)nnc2n1", "note": "[1-[4-(4-chlorophenyl)sulfonyl-1-piperazinyl]-2-[(5,7-dimethyl-[1,2,4]triazolo[4,3-a]pyrimidin-3-yl)thio]ethanone]", "IC50": "> 50"}, {"compound": "O=C1c2ccccc2-c2onc3ccc(NCCCn4ccnc4)c1c23", "note": "[SMR000044769]", "IC50": 47.6}, {"compound": "N#Cc1c(N)sc(=S)c2c1CCN(Cc1ccccc1)C2", "note": "[3-Amino-7-benzyl-1-thioxo-5,6,7,8-tetrahydro-1H-thiopyrano[3,4-c]pyridine-4-carbonitrile]", "IC50": 47.9}, {"compound": "O=C1C=Cc2ccccc2C1=O", "note": "[1,2-dihydronaphthalene-1,2-dione]", "IC50": "> 50"}, {"compound": "CCOc1ccc(-c2cc3nc(C4CCN(C(=O)OC(C)(C)C)CC4)c(C(=O)O)cn3n2)cc1", "note": "[2-(4-ethoxyphenyl)-5-[1-[(2-methylpropan-2-yl)oxy-oxomethyl]-4-piperidinyl]-6-pyrazolo[1,5-a]pyrimidinecarboxylic acid]", "IC50": "> 50"}, {"compound": "Cn1ncnc2c(=O)n(C)c(=O)nc1-2", "IC50": "> 50"}, {"compound": "O=C(Nc1ccc2nc(-c3ccco3)c(-c3ccco3)nc2c1)N1CCCCCC1", "IC50": "> 50"}, {"compound": "COCCCn1c(N)c(C(=O)NCCC(C)C)c2nc3ccccc3nc21", "note": "[MLS000041744]", "IC50": "> 50"}, {"compound": "COC(=O)c1ccccc1NC(=O)CN1C(=O)C2CCCN2c2ncc(Cl)cc21", "note": "(configuration not stated) [MLS000094302]", "IC50": "> 50"}, {"compound": "CCOc1ccc2noc3c2c1C(=O)c1ccccc1-3", "note": "[MLS000106837]", "IC50": "> 50"}]}]}
